Laboratory results as given in patent publication US20250282790A1 (Temple University-Of The Commonwealth System of Higher …, priority 2016, published 2025).

Target: 5HT7 receptors (Homo sapiens (Human), UniProt P34969)
Assay: Radiolabel Binding Studies for Serotonin 5-HT7 Receptors, Method 2 ([3H]-5HT competition; Ki and percent inhibition at 10 μM)
Conditions: radioligand competition binding
Method: Radiolabel Binding Studies for Serotonin 5-HT7 Receptors, Method 2:
A solution of the compound of the disclosure to be tested is prepared as a 1-mg/ml stock in Assay Buffer or DMSO according to its solubility. A similar stock of the reference compound chlorpromazine is also prepared as a positive control. Eleven dilutions (5×assay concentration) of the compound of the disclosure and chlorpromazine are prepared in the Assay Buffer by serial dilution to yield final corresponding assay concentrations ranging from 10 pM to 10 μM.
A stock concentration of 5 nM [^3H]-5-Hydroxytryptamine ([^3H]-5HT) is prepared in 50 mM Tris-HCl, 10 mM MgCl2, 1 mM EDTA, pH 7.4 (Assay Buffer). Aliquots (50 μl) of radioligand are dispensed into the wells of a 96-well plate containing 100 μl of Assay Buffer. Duplicate 50-μl aliquots of the compound of the disclosure test and chlorpromazine positive control reference compound serial dilutions are added.
Membrane fractions of cells expressing recombinant 5HT7 receptors (50 L) are dispensed into each well. The membranes are prepared from stably transfected cell lines expressing 5HT7 receptors cultured on 10-cm plates by harvesting PBS-rinsed monolayers, resuspending and lysing in chilled, hypotonic 50 mM Tris-HCl, pH 7.4, centrifuging at 20,000×g, decanting the supernatant and storing at −80° C.; the membrane preparations are resuspended in 3 ml of chilled Assay Buffer and homogenized by several passages through a 26 gauge needle before using in the assay.
The 250-μl reactions are incubated at room temperature for 1.5 hours, then harvested by rapid filtration onto 0.3% polyethyleneimine-treated, 96-well filter mats using a 96-well Filtermate harvester. Four rapid 500-μl washes are performed with chilled Assay Buffer to reduce non-specific binding. The filter mats are dried, then scintillant is added to the filters and the radioactivity retained on the filters is counted in a Microbeta scintillation counter.
Raw data (dpm) representing total radioligand binding (i.e., specific+non-specific binding) are plotted as a function of the logarithm of the molar concentration of the competitor (i.e., test or reference compound). Non-linear regression of the normalized (i.e., percent radioligand binding compared to that observed in the absence of test or reference compound) raw data is performed in Prism 4.0 (GraphPad Software) using the built-in three parameter logistic model describing ligand competition binding to radioligand-labeled sites:
where bottom equals the residual radioligand binding measured in the presence of 10 μM reference compound (i.e., non-specific binding) and top equals the total radioligand binding observed in the absence of competitor. The log IC50 (i.e., the log of the ligand concentration that reduces radioligand binding by 50%) is thus estimated from the data and used to obtain the Ki by applying the Cheng-Prusoff approximation:
where [ligand] equals the assay radioligand concentration and KD equals the affinity constant of the radioligand for the target receptor.
Compounds of the disclosure are also screened at a single concentration of 10 μM using the same method described for the Radiolabel Binding Studies for Serotonin 5HT7 receptors to determine the percent inhibition of [^3H]-5HT binding.

Chain of 5HT7 receptors (P34969 whole entry): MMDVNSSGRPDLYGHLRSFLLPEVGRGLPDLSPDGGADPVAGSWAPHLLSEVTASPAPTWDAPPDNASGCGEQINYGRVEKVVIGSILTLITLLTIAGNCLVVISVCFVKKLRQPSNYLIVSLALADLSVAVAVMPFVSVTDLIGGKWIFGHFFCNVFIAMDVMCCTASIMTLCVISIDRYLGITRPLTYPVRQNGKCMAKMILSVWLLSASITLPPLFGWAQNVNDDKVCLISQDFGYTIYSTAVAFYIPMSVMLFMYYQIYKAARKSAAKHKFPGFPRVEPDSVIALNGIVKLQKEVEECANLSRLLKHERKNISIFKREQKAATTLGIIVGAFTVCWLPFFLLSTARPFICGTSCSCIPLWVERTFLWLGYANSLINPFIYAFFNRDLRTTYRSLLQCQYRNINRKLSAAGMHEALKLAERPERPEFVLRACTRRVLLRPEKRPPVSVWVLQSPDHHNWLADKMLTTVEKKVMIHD

IC50 [nM]	SMILES
303	CS(=O)(=O)N1CCC2(CC1)CC(CCN1CCN(c3ccc(Cl)cc3)CC1)OC2=O (centres unmarked) [Entry 9]
64	Cc1ccc(N2CCN(CCC3CC4(CCN(S(=O)(=O)c5ccccc5)CC4)C(=O)O3)CC2)cc1 (centres unmarked) [Entry 10]
77	COc1ccc(S(=O)(=O)N2CCC3(CC2)CC(CCN2CCN(c4ccc(C)cc4)CC2)OC3=O)cc1 (centres unmarked) [Entry 11]
67	Cc1ccc(N2CCN(CCC3CC4(CCN(S(C)(=O)=O)CC4)C(=O)O3)CC2)c(N2CCOCC2)c1 (centres unmarked) [Example 20]
461	CS(=O)(=O)N1CCC2(CC1)CC(CCN1CCN(c3ccc(C#N)cc3N3CCOCC3)CC1)OC2=O (centres unmarked) [Entry 19]
75	CS(=O)(=O)N1CCC2(CC1)CC(CCN1CCN(c3ccc(O)cc3N3CCOCC3)CC1)OC2=O (centres unmarked) [Example 21]
96	Cc1ccc(N2CCN(CCC3CC4(CCN(S(=O)(=O)C5CCOCC5)CC4)C(=O)O3)CC2)cc1 (centres unmarked) [Example 13]
202	CS(=O)(=O)N1CCC2(CC1)CC(CCN1CCN(c3ccc(O)cc3)CC1)OC2=O (centres unmarked) [Example 22]
108	Cc1ccc(N2CCN(CCC3CC4(CCN(S(=O)(=O)c5ccc(Cl)cc5)CC4)C(=O)O3)CC2)cc1 (centres unmarked) [Example 12]
46	Cc1nc2cccc(N3CCN(CCC4CC5(CCN(S(C)(=O)=O)CC5)C(=O)O4)CC3)c2[nH]1 (centres unmarked) [Entry 8]

Further lines, the compound ahead of its results:

SMILES	IC50 [nM]
CNC(=O)N1CCC2(CC1)CC(CCN1CCN(c3ccc(C)cc3)CC1)OC2=O (centres unmarked) [Entry 5]	102
COC(=O)N1CCC2(CC1)CC(CCN1CCN(c3ccc(C)cc3)CC1)OC2=O (centres unmarked) [Entry 3]	81
Cc1ccc(N2CCN(CCC3CC4(CCN(Cc5ccccc5)CC4)C(=O)O3)CC2)cc1 (centres unmarked) [Entry 1]	18
Cc1ccc(N2CCN(CCC3CC4(CCNCC4)C(=O)O3)CC2)cc1 (centres unmarked) [Entry 2]	149
Cc1ccc(N2CCN(CCC3CC4(CCN(S(C)(=O)=O)CC4)C(=O)O3)CC2)cc1 (centres unmarked) [Entry 6]	93
CS(=O)(=O)N1CCC2(CC1)CC(CCN1CCN(c3ccccc3N3CCOCC3)CC1)OC2=O (centres unmarked) [Entry 7]	34
CC(=O)N1CCC2(CC1)CC(CCN1CCN(c3ccc(C)cc3)CC1)OC2=O (centres unmarked) [Entry 4]	122
